≈ marks a conversion by molar mass, not a printed value. Like-named read-outs stand apart in the source and are kept apart here. Where a SMILES comes first, the peptide text is derived from it.
What was measured:
[1] = system: B. subtilis; assay: microbe, parasite or virus in culture; format: cell-based, Bacillus subtilis; details: Bacillus subtilis, read-out: Minimal inhibitory concentration MIC
Protocol: (§1) For the antibacterial activity, a minimal inhibitory concentration (MIC) of a peptide in which fungus bodies were not split in an MH medium with sufficient nutrients was measured.
(§2) Specifically, the strains described in the following [Table 2] were purchased and diluted with an MH medium such that the number of bacteria was 2×10^6 colony-forming units (CFUs), 100 μl of each of the diluted strains was aliquoted into a 96-well microtiter plate, and then 100 μl of a peptide solution diluted with the MH medium (solution diluted stepwise at 2: 1) was added to each well.

[2] = system: A. baumannii; assay: MIC of antibiotic during combined treatment with antimicrobial peptide; format: cell-based, Acinetobacter baumannii; details: A. baumannii
Protocol: (§3) Thereafter, the MIC value of each mixed solution was determined by diluting the antibiotic solution with the MH medium, adding 50 μl of the diluted solution to each well, and performing an experiment even under a reversed condition.

[3] = system: S. typhimurium; assay: microbe, parasite or virus in culture; format: cell-based, Salmonella typhimurium; details: Salmonella enterica, read-out: Minimal inhibitory concentration MIC
Protocol: as §1, §2

[4] = system: E. coli; assay: MIC of antibiotic during combined treatment with antimicrobial peptide; format: cell-based, Escherichia coli; details: E. coli
Protocol: as §3

[5] = system: S. epidermidis; assay: microbe, parasite or virus in culture; format: cell-based, Staphylococcus epidermidis; details: Staphylococcus epidermidis, read-out: Minimal inhibitory concentration MIC
Protocol: as §1, §2

[6] = system: MDRAB 12035; assay: microbe, parasite or virus in culture; format: cell-based, Acinetobacter baumannii; details: for Antibiotic MIC, compound alone: MDRAB 12035, no peptide
Protocol: as §1, §2

[7] = system: A. baumannii; assay: microbe, parasite or virus in culture; format: cell-based, Acinetobacter baumannii; details: for Antibiotic MIC, compound alone: no peptide; for MIC: Acinetobacter baumannii, read-out: Minimal inhibitory concentration MIC
Protocol: as §1, §2

[8] = system: P. aeruginosa; assay: microbe, parasite or virus in culture; format: cell-based, Pseudomonas aeruginosa; details: Pseudomonas aeruginosa, read-out: Minimal inhibitory concentration MIC
Protocol: as §1, §2

[9] = system: MDREC 1229; assay: microbe, parasite or virus in culture; format: cell-based, Escherichia coli; details: for MIC: Escherichia coli, read-out: Minimal inhibitory concentration MIC; for Antibiotic MIC, compound alone: no peptide
Protocol: as §1, §2

[10] = system: E. coli; assay: microbe, parasite or virus in culture; format: cell-based, Escherichia coli
Protocol: as §1, §2

[11] = system: A. baumannii; assay: MIC of antimicrobial peptide during combined treatment with antibiotic; format: cell-based, Acinetobacter baumannii
Protocol: Specifically, the strains described in [Table 2] were prepared and diluted with an MH medium such that the number of bacteria was 2×10^6 colony-forming units (CFUs) per 1 ml, 100 μl of the diluted strains was each aliquoted into a 96-well microtiter plate, and then 50 μl of a peptide solution diluted with the MH medium from the MIC value (solution diluted stepwise at 2: 1) was added to each well. Thereafter, the MIC value of each mixed solution was determined by diluting the antibiotic solution with the MH medium, adding 50 μl of the diluted solution to each well, and performing an experiment even under a reversed condition.

[12] = system: S. aureus; assay: microbe, parasite or virus in culture; format: cell-based, Staphylococcus aureus; details: Staphylococcus aureus, read-out: Minimal inhibitory concentration MIC
Protocol: as §1, §2

[13] = with Papiliocin 1 μg/ml (Conc./MIC 1/8)
[14] = with Papiliocin 2 μg/ml (Conc./MIC 1/4)
[15] = with Papiliocin 4 μg/ml (Conc./MIC 1/2)
[16] = with Papiliocin 8 μg/ml (Conc./MIC 1)
[17] = with PapMA-1 at 16 μg/ml (1/4 of peptide MIC)
[18] = with PapMA-2 at 16 μg/ml (1/4 of peptide MIC)
[19] = E. coli, compound alone (no peptide)

| MIC ([1]; B. subtilis, agent alone) | MIC of antibiotic administered in combination with peptide ([2]; with PapMA-1 at 8 μg/ml) | MIC of antibiotic in combination as fraction of the MIC of the antibiotic alone ([2]; with PapMA-1 at 8 μg/ml) | MIC Concentration of antibiotic [2, 13] | MIC Concentration of antibiotic [2, 14] | MIC Concentration of antibiotic [2, 15] | MIC Concentration of antibiotic [2, 16] | MIC ([3]; S. typhimurium, agent alone) | MIC of antibiotic in mixture as fraction of the MIC of the antibiotic alone ([4]; with PapMA-1 at 16 μg/ml) | MIC value of antibiotic mixed with peptide [4, 17] | MIC value of antibiotic mixed with peptide [4, 18] | MIC of antibiotic in mixture as fraction of the MIC of the antibiotic alone ([4]; with PapMA-7 at 16 μg/ml) | MIC Concentration of antibiotic [4, 13] | MIC Concentration of antibiotic [4, 14] | MIC Concentration of antibiotic [4, 15] | MIC Concentration of antibiotic [4, 16] | MIC ([5]; S. epidermidis, agent alone) | Antibiotic MIC, compound alone [6] | Antibiotic MIC, compound alone ([7]; A. baumannii) | SMILES | MIC of antibiotic administered in combination with peptide ([2]; with PapMA-7 at 8 μg/ml) | other results |
| --- | --- | --- | --- | --- | --- | --- | --- | --- | --- | --- | --- | --- | --- | --- | --- | --- | --- | --- | --- | --- | --- |
| 0.25 µg/mL (≈ 0.341 µM) | 0.5 µg/mL | 1/64 | 32 µg/mL | 16 µg/mL | 16 µg/mL | 0 µg/mL | 64 µg/mL (≈ 87.2 µM) | 1/64 | 2 µg/mL | 0.5 µg/mL | 1/512 | 64 µg/mL | 64 µg/mL | 64 µg/mL | 0 µg/mL | 1 µg/mL (≈ 1.36 µM) | 32 µg/mL | 32 µg/mL | CC[C@H]1OC(=O)[C@H](C)[C@@H](O[C@H]2C[C@@](C)(OC)[C@@H](O)[C@H](C)O2)[C@H](C)[C@@H](O[C@@H]2O[C@H](C)C[C@H](N(C)C)[C@H]2O)[C@](C)(O)C[C@@H](C)C(=O)[C@H](C)[C@@H](O)[C@]1(C)O [Erythromycin, erythromycin, reference compound] |  | MIC ([7]; A. baumannii, agent alone): 32 µg/mL (≈ 43.6 µM) |
| 1 µg/mL (≈ 2.96 µM) | 8 µg/mL | 1/32 | 128 µg/mL | 64 µg/mL | 64 µg/mL | 0 µg/mL | 256 µg/mL (≈ 759 µM) | 1/16 | 16 µg/mL | 8 µg/mL | 1/256 | 128 µg/mL | 128 µg/mL | 128 µg/mL | 0 µg/mL | 1 µg/mL (≈ 2.96 µM) | 512 µg/mL | 256 µg/mL | CC(=O)NC[C@H]1CN(c2ccc(N3CCOCC3)c(F)c2)C(=O)O1 [Linezolid, linezolid, reference compound] | 1 µg/mL | MIC ([8]; P. aeruginosa, agent alone): > 1020 µg/mL; MIC of antibiotic in combination as fraction of the MIC of the antibiotic alone ([2]; with PapMA-7 at 8 μg/ml): 1/256; MIC of antibiotic in mixture as fraction of the MIC of the antibiotic alone ([4]; with PapMA-2 at 16 μg/ml): 1/32; MIC value of antibiotic mixed with peptide ([4]; with PapMA-7 at 16 μg/ml (1/2 of peptide MIC)): 1 µg/mL; MIC ([9]; MDREC 1229, agent alone): 512 µg/mL (≈ 1520 µM); Antibiotic MIC, compound alone ([9]; MDREC 1229): 512 µg/mL; Antibiotic MIC, Linezolid [10, 19]: 256 µg/mL |
|  |  |  |  |  |  |  |  |  |  |  |  |  |  |  |  |  |  |  | CC[C@H](C)[C@H](NC(=O)[C@H](CCCCN)NC(=O)[C@H](Cc1c[nH]c2ccccc12)NC(=O)[C@@H](N)CCCNC(=N)N)C(=O)N[C@@H](Cc1ccccc1)C(=O)N[C@@H](CCCCN)C(=O)N[C@@H](CCCCN)C(=O)N[C@H](C(=O)N1CCC[C@H]1C(=O)N[C@@H](CCCCN)C(=O)N[C@@H](CC(C)C)C(=O)N[C@@H](CC(C)C)C(=O)N[C@@H](Cc1c[nH]cn1)C(=O)N[C@@H](CCC(=O)O)C(=O)N[C@@H](Cc1ccccc1)C(=O)N[C@@H](CCCCN)C(=O)N[C@@H](CCCCN)C(=O)N[C@@H](Cc1ccccc1)C(N)=O)[C@@H](C)CC [Pap-MA-12] (H-RWKIFKKIPKLLHEFKKF-NH2; N-terminus assumed) |  | Peptide MIC during treatment with antibiotic ([11]; erythromycin 4 μg/ml (Conc./MIC 1/8)): 4 µg/mL; Peptide MIC during treatment with antibiotic ([11]; erythromycin 8 μg/ml (Conc./MIC 1/4)): 2 µg/mL; Peptide MIC during treatment with antibiotic ([11]; erythromycin 16 μg/ml (Conc./MIC 1/2)): 1 µg/mL; Peptide MIC during treatment with antibiotic ([11]; erythromycin 32 μg/ml (Conc./MIC 1)): 0 µg/mL; Peptide MIC during treatment with antibiotic ([11]; linezolid 32 μg/ml (Conc./MIC 1/8)): 2 µg/mL; Peptide MIC during treatment with antibiotic ([11]; linezolid 64 μg/ml (Conc./MIC 1/4)): 2 µg/mL; Peptide MIC during treatment with antibiotic ([11]; linezolid […] (Conc./MIC 1)): 0 µg/mL; Peptide MIC during treatment with antibiotic ([11]; linezolid […] (Conc./MIC 1/2)): 1 µg/mL; Peptide MIC during treatment with antibiotic ([11]; vancomycin 512 μg/ml (Conc./MIC 1/2)): 0.25 µg/mL; Peptide MIC during treatment with antibiotic ([11]; vancomycin 1024 μg/ml (Conc./MIC 1)): 0 µg/mL; Peptide MIC during treatment with antibiotic ([11]; vancomycin […] (Conc./MIC 1/4)): 0.25 µg/mL; Peptide MIC during treatment with antibiotic ([11]; vancomycin […] (Conc./MIC 1/8)): 2 µg/mL; Peptide MIC, peptide alone [7]: 8 µg/mL |

| SMILES | MIC ([1]; B. subtilis, agent alone) | MIC of antibiotic administered in combination with peptide ([2]; with PapMA-1 at 8 μg/ml) | MIC of antibiotic in combination as fraction of the MIC of the antibiotic alone ([2]; with PapMA-1 at 8 μg/ml) | MIC Concentration of antibiotic [2, 13] | MIC Concentration of antibiotic [2, 14] | MIC Concentration of antibiotic [2, 15] | MIC Concentration of antibiotic [2, 16] | MIC ([3]; S. typhimurium, agent alone) | MIC of antibiotic in mixture as fraction of the MIC of the antibiotic alone ([4]; with PapMA-1 at 16 μg/ml) | MIC value of antibiotic mixed with peptide [4, 17] | MIC value of antibiotic mixed with peptide [4, 18] | MIC of antibiotic in mixture as fraction of the MIC of the antibiotic alone ([4]; with PapMA-7 at 16 μg/ml) | MIC Concentration of antibiotic [4, 13] | MIC Concentration of antibiotic [4, 14] | MIC Concentration of antibiotic [4, 15] | MIC Concentration of antibiotic [4, 16] | MIC ([5]; S. epidermidis, agent alone) | Antibiotic MIC, compound alone [6] | Antibiotic MIC, compound alone ([7]; A. baumannii) | MIC of antibiotic administered in combination with peptide ([2]; with PapMA-7 at 8 μg/ml) | other results |
| --- | --- | --- | --- | --- | --- | --- | --- | --- | --- | --- | --- | --- | --- | --- | --- | --- | --- | --- | --- | --- | --- |
| CN[C@H](CC(C)C)C(=O)N[C@H]1C(=O)N[C@@H](CC(N)=O)C(=O)N[C@H]2C(=O)N[C@H]3C(=O)N[C@H](C(=O)N[C@H](C(=O)O)c4cc(O)cc(O)c4-c4cc3ccc4O)[C@H](O)c3ccc(c(Cl)c3)Oc3cc2cc(c3O[C@@H]2O[C@H](CO)[C@@H](O)[C@H](O)[C@H]2O[C@H]2C[C@](C)(N)[C@H](O)[C@H](C)O2)Oc2ccc(cc2Cl)[C@H]1O [Vancomycin, vancomycin, reference compound] |  |  |  | 512 µg/mL | 256 µg/mL | 256 µg/mL | 0 µg/mL |  |  |  |  |  | 512 µg/mL | 256 µg/mL | 256 µg/mL | 0 µg/mL |  | >1024 µg/mL | 1024 µg/mL | 2 µg/mL | MIC [8]: > 1020 µg/mL; MIC [1]: 1 µg/mL (≈ 0.69 µM); MIC [12]: 1 µg/mL (≈ 0.69 µM); MIC of antibiotic in combination as fraction of the MIC of the antibiotic alone ([2]; with PapMA-7 at 8 μg/ml): 1/512; MIC ([3]; TYPHIMURIUM): 512 µg/mL (≈ 353 µM); MIC [9]: > 1020 µg/mL; Antibiotic MIC, compound alone ([9]; MDREC 1229): >1024 µg/mL; Antibiotic MIC, Vancomycin [10, 19]: 1024 µg/mL; MIC ([10]; Escherichia coli, 16 h, read-out: Minimal inhibitory concentration MIC): 1020 µg/mL (≈ 707 µM); MIC [5]: 1 µg/mL (≈ 0.69 µM); MIC ([6]; Acinetobacter baumannii, read-out: Minimal inhibitory concentration MIC): > 1020 µg/mL; MIC [7]: 1020 µg/mL (≈ 707 µM) |
